Assay results reported in ChEMBL document CHEMBL3885881, “DrugMatrix”.

How the values were obtained:
[1] = species: Rattus norvegicus; type: toxicity, organism-based, Sprague-Dawley; settings: in vivo, po, 17 mg/kg, 24 h, route oral GAVAGE, dose level High, time 1 day, vehicle .5 % CMC
Description: DrugMatrix - Regimen: Single

[2] = species: Rattus norvegicus; assay: DrugMatrix - Regimen: Daily Repeat; type: toxicity, organism-based, Sprague-Dawley; design: regimen Daily Repeat, gender Male, age 6-8 weeks; settings: in vivo, po, 17 mg/kg, route oral GAVAGE, dose level High, vehicle .5 % CMC; for ABSOLUTE BASOPHIL / ABSOLUTE EOSINOPHIL / ABSOLUTE LYMPHOCYTE / ABSOLUTE MONOCYTE / ABSOLUTE SEGMENTED NEUTROPHIL / BASOPHIL / EOSINOPHIL / ERYTHROCYTE COUNT / HEMATOCRIT / HEMOGLOBIN / LEUKOCYTE COUNT / LYMPHOCYTE / MEAN CORPUSCULAR HEMOGLOBIN / MEAN CORPUSCULAR HEMOGLOBIN CONCENTRATION / MEAN CORPUSCULAR VOLUME / MONOCYTE / NEUTROPHIL / NUCLEATED RED BLOOD CELLS / PLATELET COUNT: tissue Blood; for ALANINE AMINOTRANSFERASE / ALBUMIN / ALKALINE PHOSPHATASE / ASPARTATE AMINOTRANSFERASE / BLOOD UREA NITROGEN / CARBON DIOXIDE / CHLORIDE / CHOLESTEROL / CREATININE / GLUCOSE / LACTATE DEHYDROGENASE / LIPASE / PHOSPHORUS / POTASSIUM / SODIUM / TOTAL BILIRUBIN / TOTAL PROTEIN / URIC ACID: tissue Plasma

## COc1ccc(C(=O)Nc2c(Cl)cncc2Cl)cc1OC1CCCC1
[1]; tissue Blood
  ABSOLUTE EOSINOPHIL: 176.33 CELLS/uL
  ABSOLUTE LYMPHOCYTE: 11028.33 CELLS/uL
  ABSOLUTE MONOCYTE: 409.33 CELLS/uL
  ABSOLUTE SEGMENTED NEUTROPHIL: 1619.33 CELLS/uL
  BASOPHIL: 0%
  EOSINOPHIL: 1.33%
  ERYTHROCYTE COUNT: 5.33 x10E6/uL
  HEMATOCRIT: 33.03%
  HEMOGLOBIN: 12.1 G/DL
  LEUKOCYTE COUNT: 13.23 x10E3/uL
  LYMPHOCYTE: 83.33%
  MEAN CORPUSCULAR HEMOGLOBIN: 22.7 pg
  MEAN CORPUSCULAR HEMOGLOBIN CONCENTRATION: 36.67 G/DL
  MEAN CORPUSCULAR VOLUME: 61.9 fL
  MONOCYTE: 3%
  NEUTROPHIL: 12.33%
  NUCLEATED RED BLOOD CELLS: 0 /100WBC
  PLATELET COUNT: 1139 x10E3/uL
[1]; tissue Plasma
  ALANINE AMINOTRANSFERASE: 61.33 u/L
  ALBUMIN: 4.37 G/DL
  ALKALINE PHOSPHATASE: 327.67 u/L
  ASPARTATE AMINOTRANSFERASE: 116 u/L
  BLOOD UREA NITROGEN: 15.67 mg/dL
  CARBON DIOXIDE: 34.33 mmol/L
  CHLORIDE: 101.33 MEQ/L
  CHOLESTEROL: 76 mg/dL
  CREATININE: 0.2 mg/dL
  GLUCOSE: 153.67 mg/dL
  LACTATE DEHYDROGENASE: 163.33 u/L
  LIPASE: 9 u/L
  PHOSPHORUS: 12.6 mg/dL
  POTASSIUM: 6.66 MEQ/L
  SODIUM: 148.6 MEQ/L
  TOTAL BILIRUBIN: 0.2 mg/dL
  TOTAL PROTEIN: 6.3 G/DL
  URIC ACID: 1.2 mg/dL
[2]; 72 h, time 3 day
  ABSOLUTE BASOPHIL: 0 CELLS/uL
  ABSOLUTE EOSINOPHIL: 110.33 CELLS/uL
  ABSOLUTE LYMPHOCYTE: 17172 CELLS/uL
  ABSOLUTE MONOCYTE: 305.67 CELLS/uL
  ABSOLUTE SEGMENTED NEUTROPHIL: 3612 CELLS/uL
  BASOPHIL: 0%
  EOSINOPHIL: 0.67%
  ERYTHROCYTE COUNT: 5.87 x10E6/uL
  HEMATOCRIT: 36.6%
  HEMOGLOBIN: 13.33 G/DL
  LEUKOCYTE COUNT: 21.2 x10E3/uL
  LYMPHOCYTE: 82.67%
  MEAN CORPUSCULAR HEMOGLOBIN: 22.73 pg
  MEAN CORPUSCULAR HEMOGLOBIN CONCENTRATION: 36.47 G/DL
  MEAN CORPUSCULAR VOLUME: 62.43 fL
  MONOCYTE: 1.33%
  NEUTROPHIL: 15.33%
  NUCLEATED RED BLOOD CELLS: 0 /100WBC
  PLATELET COUNT: 1117.33 x10E3/uL
  ALANINE AMINOTRANSFERASE: 51.67 u/L
  ALBUMIN: 3.77 G/DL
  ALKALINE PHOSPHATASE: 361.67 u/L
  ASPARTATE AMINOTRANSFERASE: 68.67 u/L
  BLOOD UREA NITROGEN: 17.33 mg/dL
  CARBON DIOXIDE: 31.33 mmol/L
  CHLORIDE: 103 MEQ/L
  CHOLESTEROL: 74.67 mg/dL
  CREATININE: 0.18 mg/dL
  GLUCOSE: 188.33 mg/dL
  LACTATE DEHYDROGENASE: 139 u/L
  LIPASE: 9.33 u/L
  PHOSPHORUS: 12.77 mg/dL
  POTASSIUM: 6.6 MEQ/L
  SODIUM: 149.03 MEQ/L
  TOTAL BILIRUBIN: 0.13 mg/dL
  TOTAL PROTEIN: 6.1 G/DL
  URIC ACID: 2.07 mg/dL
[2]; 120 h, time 5 day
  ABSOLUTE BASOPHIL: 0 CELLS/uL
  ABSOLUTE EOSINOPHIL: 84.67 CELLS/uL
  ABSOLUTE LYMPHOCYTE: 11281 CELLS/uL
  ABSOLUTE MONOCYTE: 472.33 CELLS/uL
  ABSOLUTE SEGMENTED NEUTROPHIL: 1195.33 CELLS/uL
  BASOPHIL: 0%
  EOSINOPHIL: 0.67%
  ERYTHROCYTE COUNT: 6 x10E6/uL
  HEMATOCRIT: 36.73%
  HEMOGLOBIN: 13.33 G/DL
  LEUKOCYTE COUNT: 13.03 x10E3/uL
  LYMPHOCYTE: 86.33%
  MEAN CORPUSCULAR HEMOGLOBIN: 22.23 pg
  MEAN CORPUSCULAR HEMOGLOBIN CONCENTRATION: 36.3 G/DL
  MEAN CORPUSCULAR VOLUME: 61.23 fL
  MONOCYTE: 3.67%
  NEUTROPHIL: 9.33%
  NUCLEATED RED BLOOD CELLS: 0 /100WBC
  PLATELET COUNT: 1070.67 x10E3/uL
  ALANINE AMINOTRANSFERASE: 64 u/L
  ALBUMIN: 4.1 G/DL
  ALKALINE PHOSPHATASE: 400 u/L
  ASPARTATE AMINOTRANSFERASE: 136.33 u/L
  BLOOD UREA NITROGEN: 13 mg/dL
  CARBON DIOXIDE: 34.33 mmol/L
  CHLORIDE: 101 MEQ/L
  CHOLESTEROL: 65.33 mg/dL
  CREATININE: 0.19 mg/dL
  GLUCOSE: 166.33 mg/dL
  LACTATE DEHYDROGENASE: 276.33 u/L
  LIPASE: 8.33 u/L
  PHOSPHORUS: 11.3 mg/dL
  POTASSIUM: 6.12 MEQ/L
  SODIUM: 149.43 MEQ/L
  TOTAL BILIRUBIN: 0.2 mg/dL
  TOTAL PROTEIN: 6.63 G/DL
  URIC ACID: 1.5 mg/dL
[2]; […], time 14 day
  ABSOLUTE BASOPHIL: 0 CELLS/uL
  ABSOLUTE EOSINOPHIL: 107.5 CELLS/uL
  ABSOLUTE LYMPHOCYTE: 9595.25 CELLS/uL
  ABSOLUTE MONOCYTE: 1138.5 CELLS/uL
  ABSOLUTE SEGMENTED NEUTROPHIL: 8133.75 CELLS/uL
  BASOPHIL: 0%
  EOSINOPHIL: 0.5%
  ERYTHROCYTE COUNT: 6.06 x10E6/uL
  HEMATOCRIT: 34.55%
  HEMOGLOBIN: 12.95 G/DL
  LEUKOCYTE COUNT: 18.98 x10E3/uL
  LYMPHOCYTE: 60.25%
  MEAN CORPUSCULAR HEMOGLOBIN: 21.4 pg
  MEAN CORPUSCULAR HEMOGLOBIN CONCENTRATION: 37.5 G/DL
  MEAN CORPUSCULAR VOLUME: 57.05 fL
  MONOCYTE: 5%
  NEUTROPHIL: 34.25%
  NUCLEATED RED BLOOD CELLS: 0 /100WBC
  PLATELET COUNT: 1068 x10E3/uL
  ALANINE AMINOTRANSFERASE: 48.25 u/L
  ALBUMIN: 3.22 G/DL
  ALKALINE PHOSPHATASE: 273 u/L
  ASPARTATE AMINOTRANSFERASE: 67 u/L
  BLOOD UREA NITROGEN: 14.25 mg/dL
  CARBON DIOXIDE: 33.75 mmol/L
  CHLORIDE: 100.5 MEQ/L
  CHOLESTEROL: 56 mg/dL
  CREATININE: 0.24 mg/dL
  GLUCOSE: 131 mg/dL
  LACTATE DEHYDROGENASE: 107.75 u/L
  LIPASE: 9 u/L
  PHOSPHORUS: 8.28 mg/dL
  POTASSIUM: 5.54 MEQ/L
  SODIUM: 148.15 MEQ/L
  TOTAL BILIRUBIN: 0.18 mg/dL
  TOTAL PROTEIN: 6.12 G/DL
  URIC ACID: 0.62 mg/dL
